Test [1] deals with Salmonella enterica serovar Typhimurium SL1344.
The test system is the same in test [2]. Kind of test: intracellular MIC (10-fold luminescence reduction); higher = less potent. Conditions: RAW264.7 macrophages.
The test system of test [3] is RAW264.7. Kind of test: cytotoxicity (LDH release relative to maximum lysis); higher = more toxic. Particulars: 50 µM; 2 h.

≈ marks a conversion by molar mass, not a printed value. Counter-ions that a name gives are not always drawn.

As for `CCCCC(=O)N(Cc1ccc(-c2ccccc2-c2nnn[nH]2)cc1)[C@H](C(=O)O)C(C)C` [VALSARTAN], the MIC in test [1] (LPM pH 5.8), in test [1] (MHB) and in test [1] (MOPS glucose minimal medium) was above 50 µM throughout. The “intracellular MIC” value in test [2] was above 50 µM. In addition, in test [3], the cytotoxicity was 6.04%.

With `O=c1[nH]c(=O)n([C@H]2C[C@H](O)[C@@H](CO)O2)cc1F` [FLOXURIDINE], the MIC in test [1] (LPM pH 5.8), in test [1] (MHB) and in test [1] (MOPS glucose minimal medium) was at most 0.78 µM each time. The “intracellular MIC” value in test [2] was above 50 µM. For the same compound, the cytotoxicity in test [3] worked out at 18.7%.

Consider `CC1COc2c(N3CCN(C)CC3)c(F)cc3c(=O)c(C(=O)O)cn1c23` (stereo not given) [OFLOXACIN], for which the MIC in test [1] (LPM pH 5.8), in test [1] (MHB) and in test [1] (MOPS glucose minimal medium) was at most 0.78 µM in each case. The “intracellular MIC” value in test [2] is 1.56 µM. In test [3], this compound gave a cytotoxicity of 6.6%.

For the compound `O=C(CCCN1CCC2(CC1)C(=O)NCN2c1ccccc1)c1ccc(F)cc1` [SPIPERONE], the MIC in test [1] (LPM pH 5.8), in test [1] (MHB) and in test [1] (MOPS glucose minimal medium) was above 50 µM throughout. The “intracellular MIC” value in test [2] is above 50 µM. In test [3], the cytotoxicity was found to be 20.9%.

Consider `CN(C)c1ccc(O)c2c1C[C@H]1C[C@H]3[C@H](N(C)C)C(O)=C(C(N)=O)C(=O)[C@@]3(O)C(O)=C1C2=O` [MINOCYCLINE HYDROCHLORIDE], for which the MIC was at most 0.78 µM in test [1] (LPM pH 5.8), 12.5 µM in test [1] (MHB) and 6.25 µM in test [1] (MOPS glucose minimal medium). Further, the “intracellular MIC” value in test [2] stood at 12.5 µM. The cytotoxicity in test [3] worked out at 21%.

Consider `CCn1cc(C(=O)O)c(=O)c2cc(F)c(N3CCNC(C)C3)c(F)c21` (stereo not given) [LOMEFLOXACIN HYDROCHLORIDE], for which the MIC in test [1] (LPM pH 5.8) is 1.56 µM; in test [1] (MHB), at most 0.78 µM; in test [1] (MOPS glucose minimal medium), at most 0.78 µM. Also, the “intracellular MIC” value in test [2] is at most 0.78 µM. Further, the cytotoxicity in test [3] came to 15.9%.

`CCN(CC)C(C)CN1c2ccccc2Sc2ccccc21` (stereo not given) [ETHOPROPAZINE HYDROCHLORIDE]: the MIC in test [1] (LPM pH 5.8), in test [1] (MHB) and in test [1] (MOPS glucose minimal medium) was above 50 µM throughout. Further, the “intracellular MIC” value in test [2] is at most 0.78 µM. In test [3], the cytotoxicity was 11.8%.

Consider `C[C@H]1c2cccc(O)c2C(=O)C2=C(O)[C@]3(O)C(=O)C(C(N)=O)=C(O)[C@@H](N(C)C)[C@@H]3[C@@H](O)[C@@H]21` [DOXYCYCLINE HYDROCHLORIDE], for which the minimum inhibitory concentration (MIC) in test [1] (LPM pH 5.8) was 1.56 µM; in test [1] (MHB) it was 6.25 µM; in test [1] (MOPS glucose minimal medium), 6.25 µM. Moreover, the “intracellular MIC” value in test [2] was at most 0.78 µM. In test [3], this compound showed a cytotoxicity of 8.01%.

`CNCCCC12CCC(c3ccccc31)c1ccccc12` [MAPROTILINE HYDROCHLORIDE]: the MIC in test [1] (LPM pH 5.8), in test [1] (MHB) and in test [1] (MOPS glucose minimal medium) was above 50 µM throughout. For the same compound, in test [2], the “intracellular MIC” value stood at 3.13 µM. The cytotoxicity in test [3] worked out at 34%.

For the compound `CN1CCC(=C2c3ccccc3C=Cc3ccccc32)CC1` [CYPROHEPTADINE HYDROCHLORIDE], the MIC in test [1] (LPM pH 5.8), in test [1] (MHB) and in test [1] (MOPS glucose minimal medium) was above 50 µM throughout. In addition, the “intracellular MIC” value in test [2] is above 50 µM. Also, the cytotoxicity in test [3] was 6.22%.

As to `Cc1ccc(Cl)c(Nc2ccccc2C(=O)O)c1Cl` [MECLOFENAMATE SODIUM], the MIC in test [1] (LPM pH 5.8), in test [1] (MHB) and in test [1] (MOPS glucose minimal medium) was above 50 µM throughout. Besides, the “intracellular MIC” value in test [2] is above 50 µM. The compound also returned a cytotoxicity in test [3] of 7.81%.

With `C[C@@H]1CN(c2c(F)c(N)c3c(=O)c(C(=O)O)cn(C4CC4)c3c2F)C[C@H](C)N1` [SPARFLOXACIN], the MIC in test [1] (LPM pH 5.8), in test [1] (MHB) and in test [1] (MOPS glucose minimal medium) was at most 0.78 µM in each case. Further, the “intracellular MIC” value in test [2] was at most 0.78 µM. The compound also came in with a cytotoxicity in test [3] of 16.6%.

As for `OC[C@H]1O[C@H](O[C@]2(CCl)O[C@H](CCl)[C@@H](O)[C@@H]2O)[C@H](O)[C@@H](O)[C@H]1Cl` [SUCRALOSE], the minimal inhibitory concentration (MIC) in test [1] (LPM pH 5.8) was above 50 µM; in test [1] (MHB), at most 0.78 µM; in test [1] (MOPS glucose minimal medium), 6.25 µM (≈ 2.49 µg/mL). Besides, in test [2], the “intracellular MIC” value was at most 0.78 µM. Moreover, in test [3], the cytotoxicity is 15%.
